Measured values taken from ChEMBL document CHEMBL1127273, “Novel cholecystokinin receptor ligands: Oxopiperazines derived from Boc-CCK-4” (Bioorg Med Chem Lett, 1994).
Residues, ends and D or L forms follow the SMILES beside them. *: point of attachment. NHPhenethyl = c1ccc(CCN*)cc1; Boc = CC(C)(C)OC(=O)*

Tests used:
[1] = target: Cholecystokinin receptor (Mus musculus) (UniProt O08786+P56481); assay: Ratio of CCK-A receptor to CCK-B receptor was determined; type: protein assay
[2] = target: T1, Gastrin/cholecystokinin type B receptor (Mus musculus, UniProt P56481); assay: Concentration producing half-maximal inhibition of specific binding of [125I]- CCK-8 to CCK receptors mouse forebrain membranes (CCK-B); type: tissue-based, Brain
T1 sequence (P56481 whole entry): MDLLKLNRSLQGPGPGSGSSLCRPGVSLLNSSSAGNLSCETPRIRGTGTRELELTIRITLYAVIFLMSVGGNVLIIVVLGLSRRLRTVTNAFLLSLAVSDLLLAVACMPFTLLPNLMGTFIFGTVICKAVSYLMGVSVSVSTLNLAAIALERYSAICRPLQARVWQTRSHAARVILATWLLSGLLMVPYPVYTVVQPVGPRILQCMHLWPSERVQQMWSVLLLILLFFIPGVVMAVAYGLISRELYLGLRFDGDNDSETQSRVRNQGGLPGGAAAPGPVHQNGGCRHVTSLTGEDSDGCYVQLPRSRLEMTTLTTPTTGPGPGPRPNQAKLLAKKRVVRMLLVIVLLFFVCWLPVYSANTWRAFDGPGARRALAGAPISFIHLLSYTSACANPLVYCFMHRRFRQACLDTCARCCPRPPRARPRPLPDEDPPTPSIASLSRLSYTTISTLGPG

[3] = target: T2, Cholecystokinin receptor type A (Mus musculus, UniProt O08786); assay: Concentration producing half-maximal inhibition of specific binding of [125I]- CCK-8 to CCK receptors on mouse pancreatic membranes (CCK-A)
T2 sequence (O08786 whole entry): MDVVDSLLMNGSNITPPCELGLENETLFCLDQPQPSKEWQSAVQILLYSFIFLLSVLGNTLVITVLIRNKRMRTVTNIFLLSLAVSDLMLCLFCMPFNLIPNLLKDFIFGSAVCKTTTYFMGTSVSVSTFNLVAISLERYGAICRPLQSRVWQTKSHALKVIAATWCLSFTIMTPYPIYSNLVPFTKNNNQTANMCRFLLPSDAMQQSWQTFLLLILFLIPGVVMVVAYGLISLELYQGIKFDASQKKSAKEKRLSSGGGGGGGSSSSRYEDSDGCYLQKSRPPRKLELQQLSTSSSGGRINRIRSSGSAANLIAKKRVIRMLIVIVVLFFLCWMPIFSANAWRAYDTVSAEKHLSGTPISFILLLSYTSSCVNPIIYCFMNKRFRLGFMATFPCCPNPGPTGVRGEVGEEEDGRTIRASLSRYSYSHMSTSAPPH

Row | SMILES | Ratio [1] | IC50 [2] [µM] | IC50 [3] [µM]
1 | CC(C)C[C@H](NC(=O)[C@H](Cc1c[nH]c2ccccc12)NC(=O)OC(C)(C)C)C(=O)N1CC(=O)N[C@H](Cc2ccccc2)C1 | 0.0012 | 39 | 0.046
2 | CC(C)C[C@H](NC(=O)[C@H](Cc1c[nH]c2ccccc12)NC(=O)OC(C)(C)C)C(=O)N1C[C@@H](Cc2ccccc2)NC(=O)[C@H]1CC(=O)O | 0.09 | 70 | 6.3
3 | CC(C)C[C@H](NC(=O)[C@H](Cc1c[nH]c2ccccc12)NC(=O)OC(C)(C)C)C(=O)N1C[C@H](CCc2ccccc2)NC(=O)[C@@H]1CC(=O)O | 0.077 | 8.2 | 0.63
4 | CC(C)C[C@H](NC(=O)[C@H](Cc1c[nH]c2ccccc12)NC(=O)OC(C)(C)C)C(=O)N1C[C@H](Cc2ccccc2)NC(=O)[C@H]1CC(=O)O (mixture of isomers) | 0.38 | 7.4 | 2.8
5 | CC(C)C[C@H](NC(=O)[C@@H](Cc1c[nH]c2ccccc12)NC(=O)OC(C)(C)C)C(=O)N1CC(=O)N[C@@H](Cc2ccccc2)C1 |  | > 100 | 5.5
6 | CC(C)C[C@H](NC(=O)[C@H](Cc1c[nH]c2ccccc12)NC(=O)OC(C)(C)C)C(=O)N1CC(=O)N[C@@H](Cc2ccccc2)C1 | 0.0073 | 37 | 0.27
7 | CC(C)C[C@H](NC(=O)[C@H](Cc1c[nH]c2ccccc12)NC(=O)OC(C)(C)C)C(=O)N1C[C@H](c2ccccc2)NC(=O)[C@@H]1CC(=O)O | 1 | 9.4 | 9.4
8 | CC(C)C[C@H](NC(=O)[C@H](Cc1c[nH]c2ccccc12)NC(=O)OC(C)(C)C)C(=O)N1C[C@@H](Cc2ccccc2)NC(=O)[C@@H]1CC(=O)O | 0.21 | 17 | 3.6
9 | CCOC(=O)N[C@@H](Cc1c[nH]c2ccccc12)C(=O)N[C@@H](CC(C)C)C(=O)N1CC(=O)N[C@@H](Cc2ccccc2)C1 | 0.011 | 38 | 0.43
10 | CC(C)C[C@H](NC(=O)CCc1c[nH]c2ccccc12)C(=O)N1C[C@H](Cc2ccccc2)NC(=O)[C@@H]1CC(=O)O | 6.3 | 8.9 | 56
11 | CC(C)C[C@H](NC(=O)[C@H](Cc1c[nH]c2ccccc12)NC(=O)OC(C)(C)C)C(=O)N[C@@H](CC(=O)O)C(=O)NCCc1ccccc1 (Boc-Trp-Leu-Asp-NHPhenethyl) | 10 |  | 
12 | CC(C)C[C@H](NC(=O)[C@@H](N)Cc1c[nH]c2ccccc12)C(=O)N1C[C@H](Cc2ccccc2)NC(=O)[C@@H]1CC(=O)O | 3.4 | 15 | 51
13 | CC(C)C[C@H](NC(=O)Cc1c[nH]c2ccccc12)C(=O)N1C[C@H](Cc2ccccc2)NC(=O)[C@@H]1CC(=O)O | 5.2 | 2.5 | 13
14 | CC(C)C[C@H](NC(=O)[C@H](Cc1c[nH]c2ccccc12)NC(=O)OC(C)(C)C)C(=O)N1C[C@H](Cc2ccccc2)NC(=O)[C@@H]1CC(=O)O | 0.014 | 61 | 0.84
15 | CC(C)C[C@H](NC(=O)[C@H](Cc1c[nH]c2ccccc12)NC(=O)/C=C/c1ccccc1)C(=O)N1CC(=O)N[C@@H](Cc2ccccc2)C1 |  | > 100 | 0.52
16 | CCCC[C@H](NC(=O)c1c[nH]c2ccccc12)C(=O)N1C[C@H](Cc2ccccc2)NC(=O)[C@@H]1CC(=O)O |  | > 100 | 1.4
17 | CCCC[C@H](NC(=O)Cc1c[nH]c2ccccc12)C(=O)N1C[C@H](Cc2ccccc2)NC(=O)[C@@H]1CC(=O)O | 6 | 1.2 | 7.2
18 | CC(C)C[C@H](NC(=O)[C@H](Cc1c[nH]c2ccccc12)NC(=O)OCc1ccccc1)C(=O)N1CC(=O)N[C@H](Cc2ccccc2)C1 | 0.0009 | 15 | 0.014
19 | CC(C)C[C@H](NC(=O)[C@H](Cc1c[nH]c2ccccc12)NC(=O)OCc1ccccc1)C(=O)N1CC(=O)N[C@@H](Cc2ccccc2)C1 | 0.0036 | 18 | 0.064
20 | CC(C)C[C@H](NC(=O)C(NC(=O)OC(C)(C)C)c1ccccc1)C(=O)N1CC(=O)N[C@@H](Cc2ccccc2)C1 (stereo not given in full) | 2.4 | 10 | 24
